Each structure is given as a SMILES string. Converted amounts (≈) assume the structure as drawn. A value given as a limit tells only on which side of the number the result lay.

The record followed here is ChEMBL document CHEMBL1136732, “Discovery of 5-[5-fluoro-2-oxo-1,2- dihydroindol-(3Z)-ylidenemethyl]-2,4- dimethyl-1H-pyrrole-3-carboxylic acid (2-diethylaminoethyl)amide, a novel tyrosine kinase inhibitor targeting vascular endothelial and platelet-derived growth factor receptor tyrosine kinase” (J Med Chem, 2003).

Series [1] deals with Epidermal growth factor receptor (Homo sapiens, UniProt P00533).
Sequence of Epidermal growth factor receptor (P00533 whole entry): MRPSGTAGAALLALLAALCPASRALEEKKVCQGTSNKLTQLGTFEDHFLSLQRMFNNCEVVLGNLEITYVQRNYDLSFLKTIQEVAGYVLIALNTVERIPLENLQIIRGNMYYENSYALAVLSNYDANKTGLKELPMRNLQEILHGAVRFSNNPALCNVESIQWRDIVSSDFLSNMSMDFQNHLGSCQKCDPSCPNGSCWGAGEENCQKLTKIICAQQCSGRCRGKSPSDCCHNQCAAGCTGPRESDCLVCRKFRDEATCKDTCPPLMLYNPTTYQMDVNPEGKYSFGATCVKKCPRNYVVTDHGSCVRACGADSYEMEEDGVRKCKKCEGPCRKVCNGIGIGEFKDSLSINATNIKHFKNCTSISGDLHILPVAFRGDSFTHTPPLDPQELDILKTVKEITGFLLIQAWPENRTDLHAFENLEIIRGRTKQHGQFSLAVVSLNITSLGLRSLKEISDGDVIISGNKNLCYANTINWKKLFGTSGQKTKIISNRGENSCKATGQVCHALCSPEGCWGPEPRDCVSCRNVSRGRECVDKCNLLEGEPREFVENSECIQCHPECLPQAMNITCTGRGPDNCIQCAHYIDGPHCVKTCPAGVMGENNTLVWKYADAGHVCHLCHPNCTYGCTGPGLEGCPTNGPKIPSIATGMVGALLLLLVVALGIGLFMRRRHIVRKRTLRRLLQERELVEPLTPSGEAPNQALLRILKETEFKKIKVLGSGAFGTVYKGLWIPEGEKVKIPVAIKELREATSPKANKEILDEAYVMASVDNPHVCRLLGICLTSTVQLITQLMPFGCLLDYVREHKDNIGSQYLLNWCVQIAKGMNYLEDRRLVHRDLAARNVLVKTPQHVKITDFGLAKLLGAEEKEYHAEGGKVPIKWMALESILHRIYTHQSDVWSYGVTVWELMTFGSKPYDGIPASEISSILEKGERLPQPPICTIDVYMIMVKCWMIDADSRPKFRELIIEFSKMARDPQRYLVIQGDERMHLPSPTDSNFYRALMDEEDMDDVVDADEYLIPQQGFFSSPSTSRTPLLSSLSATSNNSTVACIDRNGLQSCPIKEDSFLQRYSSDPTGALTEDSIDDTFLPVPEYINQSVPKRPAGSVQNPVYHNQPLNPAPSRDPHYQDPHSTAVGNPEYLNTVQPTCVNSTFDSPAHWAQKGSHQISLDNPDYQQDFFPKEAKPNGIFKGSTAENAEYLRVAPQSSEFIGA
Series [2] can be described thus: In vitro cytotoxicity was determined. The following applies: read-out: LD50 (the source's name).
Series [3] is described as follows: Solubility in 20 mM buffered solution after shaking for 24 hr at 22 degree celsius at pH 6. It counts as physicochemical.
Series [4] is described as follows: Solubility in 20 mM buffered solution after shaking for 24 hr at 22 degree celsius at pH 2. It counts as physicochemical.
The target of series [5] is Platelet-derived growth factor receptor beta (Homo sapiens, UniProt P09619).
Sequence of Platelet-derived growth factor receptor beta (P09619 whole entry): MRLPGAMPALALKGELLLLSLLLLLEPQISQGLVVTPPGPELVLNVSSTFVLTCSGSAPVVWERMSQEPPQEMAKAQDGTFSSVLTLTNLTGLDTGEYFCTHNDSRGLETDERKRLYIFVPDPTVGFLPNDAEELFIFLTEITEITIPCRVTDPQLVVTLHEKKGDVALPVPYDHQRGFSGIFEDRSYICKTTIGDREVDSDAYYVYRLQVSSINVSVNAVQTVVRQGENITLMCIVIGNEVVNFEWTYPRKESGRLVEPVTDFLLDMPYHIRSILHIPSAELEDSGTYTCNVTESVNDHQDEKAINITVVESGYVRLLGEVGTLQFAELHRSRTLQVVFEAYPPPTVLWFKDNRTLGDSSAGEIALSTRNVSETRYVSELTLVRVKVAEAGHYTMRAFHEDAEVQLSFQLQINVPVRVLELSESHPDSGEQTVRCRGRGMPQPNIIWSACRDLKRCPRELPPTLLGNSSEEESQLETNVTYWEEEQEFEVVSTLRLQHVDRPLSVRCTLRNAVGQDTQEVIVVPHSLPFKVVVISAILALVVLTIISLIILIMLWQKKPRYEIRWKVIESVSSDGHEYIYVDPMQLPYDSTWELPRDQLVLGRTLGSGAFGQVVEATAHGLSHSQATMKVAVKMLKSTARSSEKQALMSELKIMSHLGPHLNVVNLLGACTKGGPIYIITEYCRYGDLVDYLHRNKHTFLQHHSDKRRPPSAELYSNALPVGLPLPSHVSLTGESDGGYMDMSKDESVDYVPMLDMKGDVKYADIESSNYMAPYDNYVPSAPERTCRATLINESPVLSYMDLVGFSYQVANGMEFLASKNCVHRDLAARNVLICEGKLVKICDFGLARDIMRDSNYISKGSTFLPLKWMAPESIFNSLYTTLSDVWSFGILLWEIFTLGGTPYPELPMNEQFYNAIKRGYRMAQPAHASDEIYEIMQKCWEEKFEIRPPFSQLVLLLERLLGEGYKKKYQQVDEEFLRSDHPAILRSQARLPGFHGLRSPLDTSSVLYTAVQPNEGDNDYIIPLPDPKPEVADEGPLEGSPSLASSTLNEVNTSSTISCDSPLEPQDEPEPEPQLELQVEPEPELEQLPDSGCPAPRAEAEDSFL
Series [6] addresses Vascular endothelial growth factor receptor 2 (Homo sapiens, UniProt P35968).
The target in series [7] is Fibroblast growth factor receptor 1 (Homo sapiens, UniProt P11362).
Sequence of Fibroblast growth factor receptor 1 (P11362 whole entry): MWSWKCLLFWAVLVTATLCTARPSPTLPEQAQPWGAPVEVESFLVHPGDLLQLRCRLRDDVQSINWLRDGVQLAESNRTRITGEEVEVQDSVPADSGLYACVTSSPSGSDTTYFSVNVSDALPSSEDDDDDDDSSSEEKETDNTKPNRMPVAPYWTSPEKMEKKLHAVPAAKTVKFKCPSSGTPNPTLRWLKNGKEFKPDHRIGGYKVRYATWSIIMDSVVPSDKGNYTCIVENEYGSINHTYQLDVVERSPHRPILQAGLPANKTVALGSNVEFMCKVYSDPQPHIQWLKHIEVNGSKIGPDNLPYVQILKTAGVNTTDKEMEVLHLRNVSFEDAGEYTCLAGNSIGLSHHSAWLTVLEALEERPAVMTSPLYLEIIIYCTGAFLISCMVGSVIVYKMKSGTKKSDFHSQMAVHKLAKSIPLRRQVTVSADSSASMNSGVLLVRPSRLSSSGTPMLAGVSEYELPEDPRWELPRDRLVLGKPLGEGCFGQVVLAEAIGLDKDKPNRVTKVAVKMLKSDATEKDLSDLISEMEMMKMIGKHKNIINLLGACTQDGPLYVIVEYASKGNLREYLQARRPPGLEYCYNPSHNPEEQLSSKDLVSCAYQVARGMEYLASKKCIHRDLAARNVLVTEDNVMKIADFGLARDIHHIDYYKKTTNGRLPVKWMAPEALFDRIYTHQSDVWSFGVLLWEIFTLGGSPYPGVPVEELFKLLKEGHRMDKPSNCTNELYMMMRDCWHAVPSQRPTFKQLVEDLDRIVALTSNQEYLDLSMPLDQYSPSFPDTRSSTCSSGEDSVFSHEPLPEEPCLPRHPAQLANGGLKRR

Sequence of Vascular endothelial growth factor receptor 2 (P35968 whole entry): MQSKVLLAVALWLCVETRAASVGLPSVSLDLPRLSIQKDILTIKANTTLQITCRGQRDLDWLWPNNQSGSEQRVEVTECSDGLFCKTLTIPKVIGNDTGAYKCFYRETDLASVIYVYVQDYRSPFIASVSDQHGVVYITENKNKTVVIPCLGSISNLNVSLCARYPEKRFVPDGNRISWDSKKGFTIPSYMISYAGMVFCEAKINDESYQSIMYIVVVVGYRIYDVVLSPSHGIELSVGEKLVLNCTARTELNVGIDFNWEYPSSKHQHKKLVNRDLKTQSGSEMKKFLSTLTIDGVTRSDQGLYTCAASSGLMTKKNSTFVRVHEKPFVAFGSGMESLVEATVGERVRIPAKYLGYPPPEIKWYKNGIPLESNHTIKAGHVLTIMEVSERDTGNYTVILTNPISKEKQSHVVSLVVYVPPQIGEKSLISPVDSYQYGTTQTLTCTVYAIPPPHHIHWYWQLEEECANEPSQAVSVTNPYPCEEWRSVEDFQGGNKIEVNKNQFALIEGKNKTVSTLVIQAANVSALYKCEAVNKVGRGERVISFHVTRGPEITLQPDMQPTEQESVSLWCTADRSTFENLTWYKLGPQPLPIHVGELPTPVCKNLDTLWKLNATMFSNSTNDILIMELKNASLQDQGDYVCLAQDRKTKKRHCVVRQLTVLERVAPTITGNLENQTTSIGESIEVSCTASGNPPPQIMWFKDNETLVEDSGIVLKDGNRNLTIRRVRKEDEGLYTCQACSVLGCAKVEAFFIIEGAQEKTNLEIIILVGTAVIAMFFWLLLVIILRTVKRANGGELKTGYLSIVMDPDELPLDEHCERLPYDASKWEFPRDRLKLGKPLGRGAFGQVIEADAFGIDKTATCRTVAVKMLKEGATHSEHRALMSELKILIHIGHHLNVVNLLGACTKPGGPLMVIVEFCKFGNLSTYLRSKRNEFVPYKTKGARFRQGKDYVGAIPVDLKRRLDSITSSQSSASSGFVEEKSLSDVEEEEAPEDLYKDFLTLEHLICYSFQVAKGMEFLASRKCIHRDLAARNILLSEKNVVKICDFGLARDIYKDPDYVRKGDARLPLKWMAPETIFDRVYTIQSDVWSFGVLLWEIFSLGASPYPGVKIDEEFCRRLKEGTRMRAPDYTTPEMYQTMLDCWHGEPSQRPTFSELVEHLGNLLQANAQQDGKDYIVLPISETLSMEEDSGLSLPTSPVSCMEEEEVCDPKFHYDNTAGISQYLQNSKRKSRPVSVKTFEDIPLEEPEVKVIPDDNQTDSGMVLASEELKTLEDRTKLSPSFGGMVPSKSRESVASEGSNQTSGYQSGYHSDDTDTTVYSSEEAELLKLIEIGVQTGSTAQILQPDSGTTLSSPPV

The IC50 is the concentration that gives 50% inhibition. Higher therefore signals weaker potency in that assay. By solubility (thermodynamic) is commonly meant solubility found after equilibrating the solid with the medium. In the case of `Cc1[nH]c(/C=C2\C(=O)Nc3ccc(F)cc32)c(C)c1C(=O)NCCN1CCOCC1`, the IC50 in series [1] was greater than 20000 nM; in series [5], 2 nM; in series [6], 90 nM; in series [7], 2600 nM. For the same compound, the CC50 in series [2] was greater than 50000 nM. For the same compound, the solubility (thermodynamic) at 24 h in series [3] was found to be 0.3 µg/mL (≈ 0.727 µM); in series [4], 2940 µg/mL (≈ 7140 µM).

For the compound `CCN(CC)CCNC(=O)c1c(C)[nH]c(/C=C2\C(=O)Nc3ccc(Br)cc32)c1C`, the concentration for half-maximal inhibition (IC50) came to 10000 nM in series [1], 5 nM in series [5] and 32 nM in series [6]. For the same compound, the CC50 in series [2] was 16300 nM. In addition, the solubility (thermodynamic) at 24 h in series [3] turned out to be 101 µg/mL (≈ 220 µM); in series [4], 1300 µg/mL (≈ 2830 µM).

As to `Cc1[nH]c(/C=C2\C(=O)Nc3ccc(F)cc32)c(C)c1C(=O)NCCN(C)C`, the IC50 in series [1] is greater than 20000 nM; in series [5], 0.5 nM; in series [6], 80 nM; in series [7], 1600 nM. Further, the CC50 in series [2] stood at 48500 nM. The solubility (thermodynamic) at 24 h in series [3] was 75 µg/mL (≈ 202 µM); in series [4], 3010 µg/mL (≈ 8130 µM).

Consider `Cc1[nH]c(/C=C2\C(=O)Nc3ccc(F)cc32)c(C)c1C(=O)NCC1CCN(C)CC1`, for which the CC50 in series [2] is 38000 nM. Besides, the thermodynamic solubility at 24 h in series [3] and in series [4] was greater than 250 µg/mL throughout. Moreover, the IC50 in series [5] was 3 nM; in series [6], 25 nM; in series [7], 200 nM.

`Cc1[nH]c(/C=C2\C(=O)Nc3ccc(F)cc32)c(C)c1C(=O)NCCn1cncn1`: the 50% inhibitory concentration (IC50) in series [1] was greater than 20000 nM; in series [5] it was 10 nM; in series [6], 85 nM; in series [7], 17100 nM. Further, the CC50 in series [2] is greater than 50000 nM. For the same compound, the solubility (thermodynamic) at 24 h in series [3] came to 6 µg/mL (≈ 15.2 µM); in series [4] it was 2 µg/mL (≈ 5.07 µM).

With `Cc1[nH]c(/C=C2\C(=O)Nc3ccc(F)cc32)c(C)c1C(=O)NCc1ccncc1`, the IC50 in series [1] is greater than 20000 nM; in series [5], 1 nM; in series [6], less than 160 nM; in series [7] it was 3100 nM. For the same compound, the CC50 in series [2] is greater than 50000 nM. For the same compound, in series [4], the thermodynamic solubility at 24 h came out at 486 µg/mL (≈ 1240 µM).

Consider `CCN(CC)CCNC(=O)c1c(C)[nH]c(/C=C2\C(=O)Nc3ccccc32)c1C`, for which the concentration for half-maximal inhibition (IC50) in series [1] was greater than 20000 nM; in series [5] it was 17 nM; in series [6], 50 nM; in series [7], 880 nM. The CC50 in series [2] was greater than 50000 nM. In addition, the thermodynamic solubility at 24 h in series [3] was determined as 511 µg/mL (≈ 1340 µM); in series [4], 3020 µg/mL (≈ 7940 µM).

Regarding `Cc1[nH]c(/C=C2\C(=O)Nc3ccccc32)c(C)c1CCCN1CCN(C)CC1`, the half-inhibitory concentration (IC50) was greater than 20000 nM in series [1], 60 nM in series [5], 300 nM in series [6] and 4200 nM in series [7]. Also, the CC50 in series [2] was greater than 50000 nM.

As for `Cc1[nH]c(/C=C2\C(=O)Nc3ccccc32)c(C)c1CCC(=O)O` [ORANTINIB], in series [2], the CC50 is greater than 50000 nM. Further, the thermodynamic solubility at 24 h in series [4] is less than 5 µg/mL.

Turning to `Cc1cc(C)c(/C=C2\C(=O)Nc3ccccc32)[nH]1` [SEMAXANIB], the CC50 in series [2] is greater than 50000 nM. Further, the solubility (thermodynamic) at 24 h in series [3] and in series [4] was less than 1 µg/mL throughout.

Consider `CCN(CC)CCNC(=O)c1c(C)[nH]c(/C=C2\C(=O)Nc3ccc(Cl)cc32)c1C` [SU-11652], for which the IC50 in series [1] is greater than 20000 nM; in series [5] it was 3 nM; in series [6], 27 nM; in series [7], 170 nM. Further, in series [2], the CC50 worked out at 15600 nM. In addition, the results for the solubility (thermodynamic) at 24 h in series [3] and in series [4] were 186 µg/mL (≈ 448 µM) and 3260 µg/mL (≈ 7850 µM), respectively.

Consider `CCN(CC)CCNC(=O)c1c(C)[nH]c(/C=C2\C(=O)Nc3ccc(F)cc32)c1C` [SUNITINIB], for which, in series [2], the CC50 turned out to be 48900 nM. For the same compound, the solubility (thermodynamic) at 24 h in series [3] is 364 µg/mL (≈ 913 µM); in series [4], 2580 µg/mL (≈ 6480 µM).

In the case of `Cc1[nH]c(/C=C2\C(=O)Nc3ccc(F)cc32)c(C)c1C(=O)NCCN1CCCC1` [TOCERANIB], the half-maximal inhibitory concentration (IC50) in series [1] was greater than 20000 nM; in series [5], 1 nM; in series [6] it was 60 nM; in series [7], 3900 nM. In addition, in series [2], the CC50 is 49000 nM. Besides, the thermodynamic solubility at 24 h came to 9 µg/mL (≈ 22.7 µM) in series [3] and 3320 µg/mL (≈ 8370 µM) in series [4].
